Data as given in patent US11026427B2, “Microbiocidal oxadiazole derivatives” (SYNGENTA PARTICIPATIONS AG, priority 2016, dated 2021).
One block for each molecule: values may come before it.

Assays:
Phakopsora pachyrhizi = Phakopsora pachyrhizi / soybean / leaf disc preventative (Asian soybean rust); format: in vivo; conditions: foliar, 200 ppm in the applied formulation, compared to untreated control, read-out: disease control
Outline: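 Read-out is percent disease control relative to untreated check discs, assessed once untreated discs show adequate disease, 12 to 14 days after application. Compounds, tested at 200 ppm in the applied formulation, are sprayed onto soybean leaf discs one day before inoculation with a spore suspension.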

[1] = tested on: Puccinia recondita f. Sp. tritici; test: Puccinia recondita f. sp. tritici / wheat / leaf disc preventative (brown rust); format: in vivo; conditions: foliar, 200 ppm in the applied formulation, compared to untreated control, read-out: disease control
Outline: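 Preventative leaf-segment test: compound at 200 ppm applied by spray to Kanzler wheat, with spore inoculation following after one day. Disease control relative to untreated check read 7 to 9 days post-application, incubation at 19° C., 75% relative humidity, 12 h light/12 h dark.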

[2] = tested on: Glomerella lacenarium (Colletotrichum lacenarium); test: Glomerella lacenarium (Colletotrichum lacenarium) liquid culture / cucumber / preventative (anthracnose); format: cell-based; conditions: 20 ppm in the applied formulation, growth inhibition measured photometrically, compared to untreated control, read-out: disease control
Outline: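 Photometric measurement of fungal growth inhibition 3 to 4 days after application gives percent activity relative to untreated check. Conidia were suspended in potato dextrose broth and combined with DMSO compound solutions; incubation at 24° C.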

Uromyces viciae-fabae = Uromyces viciae-fabae / field bean / leaf disc preventative (faba-bean rust); format: in vivo; conditions: foliar, 288 h, 100 ppm in the applied formulation, compared to untreated control, read-out: disease control
Method: Leaf disks or leaf segments of various plant species are cut from plants grown in a greenhouse. The cut leaf disks or segments are placed in multiwell plates (24-well format) onto water agar. The leaf disks are sprayed with a test solution before (preventative) or after (curative) inoculation. Compounds to be tested are prepared as DMSO solutions (max. 10 mg/ml) which are diluted to the appropriate concentration with 0.025% Tween20 just before spraying. The inoculated leaf disks or segments are incubated under defined conditions (temperature, relative humidity, light, etc.) according to the respective test system. A single evaluation of disease level is carried out 3 to 14 days after inoculation, depending on the pathosystem. Percent disease control relative to the untreated check leaf disks or segments is then calculated.
Field bean leaf discs are placed on water agar in multiwell plates (96-well format) and 10 μl of the formulated test compound diluted in acetone and a spreader pipetted onto the leaf disc. Two hours after application leaf discs are inoculated by spraying a spore suspension on the lower leaf surface. The leaf discs are incubated in a climate cabinet at 22° C. with 18 hour day and 70% relative humidity. The activity of a compound is assessed as percent disease control compared to untreated when an appropriate level of disease damage appears in untreated check leaf disks (12 days after application).
The following compounds at 100 ppm in the applied formulation give at least 80% disease control in this test when compared to untreated control leaf discs under the same conditions, which show extensive disease development.

[3] = tested on: Puccinia recondita f. Sp. tritici; test: Puccinia recondita f. sp. tritici / wheat / leaf disc curative (brown rust); format: in vivo; conditions: foliar, 200 ppm in the applied formulation, compared to untreated control, read-out: disease control
Outline: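 Read-out is percent disease control relative to untreated segments, assessed 6 to 8 days after treatment once check disease is adequate. Kanzler wheat leaf segments on agar receive fungal spores, then test compound (DMSO stock diluted in 0.025% Tween20 or water) 1 day later, under 19° C and 75% relative humidity.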

melting point: 63 to 69 °C
SMILES: OC(c1ccccc1)c1ccc(-c2noc(C(F)(F)F)n2)cc1 (centres unmarked) [Compound 2.2, phenyl-[4-[5-(trifluoromethyl)-1,2,4-oxadiazol-3-yl]phenyl]methanol]
pest or weed control at 200 ppm (Phakopsora pachyrhizi): ≥ 80%
pest or weed control at 200 ppm [1]: ≥ 80%
inhibition of growth at 20 ppm [2]: ≥ 80%
pest or weed control at 100 ppm (Uromyces viciae-fabae): ≥ 80%

melting point: 93 to 96 °C
SMILES: CC#CC(O)c1ccc(-c2noc(C(F)(F)F)n2)cc1 (centres unmarked) [Compound 2.6, 1-[4-[5-(trifluoromethyl)-1,2,4-oxadiazol-3-yl]phenyl]but-2-yn-1-ol]
pest or weed control at 200 ppm (Phakopsora pachyrhizi): ≥ 80%
pest or weed control at 200 ppm [1]: ≥ 80%
inhibition of growth at 20 ppm [2]: ≥ 80%
pest or weed control at 200 ppm [3]: ≥ 80%
pest or weed control at 100 ppm (Uromyces viciae-fabae): ≥ 80%
